Data: US6426401B1, “Pharmaceutical composition containing an inhibitor of immunoglobulin-receptor interaction” (Tecnogen S.C.p.A., priority 1996, dated 2002)
In brackets after ≈: the same amount, converted by molar mass.

Assays:
[1] = tested on: interaction IgE-receptor (FcεR of local mastcells); test: Passive cutaneous anaphylaxis assay (blueing lesions, Evan's Blue); type: in vivo; details: rat; for Extension of blueing lesion (%): intradermal with ascitic fluid IgE; for inhibition of IgE-receptor interaction in vivo (in words): passive cutaneous anaphylaxis
Experimental: Rat ascit fluid containing ovalbumin antigen specific IgE and with a total immunoglobulins amount of 4 mg/ml, scaled diluted in PBS, has been injected by intradermal route in a male rat of CD specie.
Intradermal injection of 50 μl volume have been done on the shaved back of the animal.
In this way it has been allowed ascitic fluid IgE to bind FcεR of local mastcells, sensitizing them.
After 24 h, 1 mg of ovalbumin and Evan's Blue dye at 2% concentration in 1 ml of PBS have been injected by endovenous route.
After 15 minutes it has been observed the presence on the rat back derma of a colored area whose extension and color intensity are proportional to the IgE antigen-specific amount injected together with the ascitic fluid.
The blueing lesions are given by the injected antigen that bind to the IgE and determined the degranulation and the release of mediators in the site of intradermal injection. Consequently a local increase of vascular permeability and a dye leak from vessel has been observed.
For the inhibition assay, the ascitic fluid containing IgE and properly diluted has been incubated with L-PAM and D-PAM peptides in total immunoglobulins-peptides molar ratio 1:2,1:20,1:200, 1:2000, 1:20.000, and 1:200.000, […]
Separate experiments for the two peptides have been performed.
In CD1 rats, 50 μl of the fluid ascitic-peptide mixture at various concentrations have been injected intradermally.
As a positive control it has been used a 50 μl injection of ascitic fluid free of peptide.
After 24 h the antigen, together with Evans's Blue dye, has been injected as described above.
After 15 minutes it has been observed that the intensity and extension of the blueing lesions on the rat back were […] to the amounts of the injected peptide and were completely absent at highest peptide concentrations.

[2] = tested on: interaction between human IgG and receptors Fcγ (U937 plasma-membrane); test: IgG-FcR binding inhibition on U937 plasma-membrane (ELISA)
Excerpt: For this purpose, it has been developed an inhibition assay of the binding between human immunoglobulins (Ig) IgG and IgA and their receptors on U937 human cell line plasma-membrane.
The IgG receptors FcgRI and FcgRII (Looney R. et al., J. Immunol., 136, 1641, 1986) and IgA receptors Fca (Monteiro R. C., et al., J. Exp.Med., 171, 597-613, 1990) are constitutively express by this cell line.
Microplates for ELISA determination (Falcon Cat. No. 3912) have been treated with plasma-membrane obtained from U937 cells in variable concentrations between 0.1 and 10 μg/ml (referred to the total proteins in the plasma-membrane preparation) in PBS, 100 μl/well, for 15 hours at 4° C.
After 1 hour and 30′ at room temperature, the plates have been washed 5 times with PBS-T (PBS-Tween 0.05%) and each well has been filled with 100 μl of solutions containing biotinilated Ig at variable concentrations between 0.02 and 2 μg/ml in PBS-BSA 0.5%.
After incubation of 1 h 30′ at 37° C., a solution of streptavidin derivatized with peroxidase has been added (Sigma, Cat. No. S-5512) diluted 1:1000 in PBS-BSA 0.5%, 100 μl/well. After 1 h incubation at 37° C., the plates have been washed 5 times with PBS-T and each well has been filled with 100 μl of a 2,2′-azino-bis(3-ethylbenzthiazoline-6-sulfonic acid) (Sigma, Cat. No. A-9941) in phosphate buffer pH 5 and 0.012% hydrogen peroxide.
After about 30′ the absorbance at 405 nm of each well has been determined by a plate reader (Merck, Mod. Mios) and the results are shown in TABLE 1.
The inhibition Ig/Fc assay has been carried out using U937 plasma-membrane at 10 μg/ml concentration for immobilization on plate and biotinilated Ig at 0.4 μg/ml concentration.
IgGs have been incubated with peptides of this invention (L-PAM, D-PAM and P-PAM) and two controls, namely peptides Arg-Thr-Tyr in L configuration (named CON-L) and in D configuration (named CON-D), at concentrations between 1 to 500 μg/ml (Table 2), whereas for IgA the inhibition assays have been carried out in similar conditions with L-PAM and CON-L peptides (Table 3).
B/B0 means the inhibition percentage calculated dividing the values, in terms of OD, obtained in presence of competitors, by those obtained in absence of competitors.

SRBC-IgG and U937 FcRs = type: cell-based, human; details: for IC50 (inhibitor amount necessary to reduce at 50% the rosettes formation between SRBC-IgG and U937 FcRs): U937/SRBC-IgG 1:100, 30 minutes at 25° C.
Excerpt: The trial has been carried on L-PAM and D-PAM peptides with the assay of rosettes formation inhibition between sheep red blood cells (SRBC) derivatized with human IgG and U937 cells (prepared as described above). Rosettes formation assay has been performed in accordance with the protocol of Lund J. et al. (FASEB J., 9, 115-119, 1995) modified as follows. The derivatized SRBC have been prepared using SRBC-tanned (tannic acid pretreated SRBC, Sigma Cat. No. R-8128) and human IgG (Sigma Cat. No. I-4506) following the provider protocol. […] No. A-9418) in DPBS (Sigma, Cat. No. D-5527). […] After 30 minutes at 25° C. rosettes have been counted, and more particularly U937 having 4 or more SRBC bound on the surface. In these conditions it has been discovered that, on the average, the 45% of treated U937 gave rosettes formation. In the above described conditions, it has been performed the inhibition assay of rosettes formation by using L-PAM , D-PAM, CON-L and CON-D peptides. A further control assay has been carried on by using IgG as inhibition positive control and not derivatized SRBC as negative control.

[3] = tested on: interaction between human IgA and receptors Fcα (U937 plasma-membrane); test: IgA/FcR binding inhibition on U937 plasma-membrane (ELISA)
Excerpt: For this purpose, it has been developed an inhibition assay of the binding between human immunoglobulins (Ig) IgG and IgA and their receptors on U937 human cell line plasma-membrane. The IgG receptors FcgRI and FcgRII (Looney R. et al., J. Immunol., 136, 1641, 1986) and IgA receptors Fca (Monteiro R. C., et al., J. Exp.Med., 171, 597-613, 1990) are constitutively express by this cell line. Microplates for ELISA determination (Falcon Cat. No. 3912) have been treated with plasma-membrane obtained from U937 cells in variable concentrations between 0.1 and 10 μg/ml (referred to the total proteins in the plasma-membrane preparation) in PBS, 100 μl/well, for 15 hours at 4° C. […] After incubation of 1 h 30' at 37° C., a solution of streptavidin derivatized with peroxidase has been added (Sigma, Cat. No. […] No. A-9941) in phosphate buffer pH 5 and 0.012% hydrogen peroxide. After about 30' the absorbance at 405 nm of each well has been determined by a plate reader (Merck, Mod. Mios) and the results are shown in TABLE 1. […] B/B0 has the above mentioned meaning.

[4] = inhibitor amount 0.025 micrograms (first line)
[5] = inhibitor amount 0.025 micrograms
[6] = inhibitor amount 2.5 micrograms
[7] = inhibitor amount 250 micrograms
[8] = inhibitor amount 2500 micrograms

C[C@H](O)[C@@H](NC(=O)[C@H](N)CCCNC(=N)N)C(=O)N[C@H](Cc1ccc(O)cc1)C(=O)NCCCC[C@H](NC(=O)[C@@H](Cc1ccc(O)cc1)NC(=O)[C@H](NC(=O)[C@H](N)CCCNC(=N)N)[C@H](C)O)C(=O)NCCCC[C@H](NC(=O)[C@H](CCCCNC(=O)[C@@H](Cc1ccc(O)cc1)NC(=O)[C@H](NC(=O)[C@H](N)CCCNC(=N)N)[C@H](C)O)NC(=O)[C@@H](Cc1ccc(O)cc1)NC(=O)[C@H](NC(=O)[C@H](N)CCCNC(=N)N)[C@H](C)O)C(=O)NCC(=O)O [D-PAM, (H2N-D-Arg-D-Thr-D-Tyr-CO)4-(Lys)2-Lys-Gly-OH]
Extension of blueing lesion (%) [1, 4]: 60%
Extension of blueing lesion (%) [1, 5]: 37%
Extension of blueing lesion (%) [1, 6]: 33%
Extension of blueing lesion (%) ([1]; inhibitor amount 25 micrograms): 20%
Extension of blueing lesion (%) [1, 7]: 15%
Extension of blueing lesion (%) [1, 8]: 0%
inhibition of IgE-receptor interaction in vivo (in words) [1]: able to inhibit in a dose dependent manner the interaction IgE-receptor up to a complete disappearance of the inflammatory reaction
inhibition of IgG-FcR interaction (in words) [2]: produce, in a dose-dependent manner, the same interaction level as IgG
inhibition of rosettes formation (in words) (SRBC-IgG and U937 FcRs): capable of inhibiting rosettes formation

C[C@@H](O)[C@H](NC(=O)[C@@H](N)CCCNC(=N)N)C(=O)N[C@@H](Cc1ccc(O)cc1)C(=O)NCCCC[C@H](NC(=O)[C@H](Cc1ccc(O)cc1)NC(=O)[C@@H](NC(=O)[C@@H](N)CCCNC(=N)N)[C@@H](C)O)C(=O)NCCCC[C@H](NC(=O)[C@H](CCCCNC(=O)[C@H](Cc1ccc(O)cc1)NC(=O)[C@@H](NC(=O)[C@@H](N)CCCNC(=N)N)[C@@H](C)O)NC(=O)[C@H](Cc1ccc(O)cc1)NC(=O)[C@@H](NC(=O)[C@@H](N)CCCNC(=N)N)[C@@H](C)O)C(=O)NCC(=O)O [L-PAM, (H2N-L-Arg-L-Thr-L-Tyr-CO)4-(Lys)2-Lys-Gly-OH]
Extension of blueing lesion (%) [1, 4]: 65%
Extension of blueing lesion (%) [1, 5]: 50%
Extension of blueing lesion (%) [1, 6]: 35%
Extension of blueing lesion (%) ([1]; inhibitor amount 25 micrograms): 0%
Extension of blueing lesion (%) [1, 7]: 0%
Extension of blueing lesion (%) [1, 8]: 0%
inhibition of IgE-receptor interaction in vivo (in words) [1]: able to inhibit in a dose dependent manner the interaction IgE-receptor up to a complete disappearance of the inflammatory reaction
inhibition of IgA-FcR interaction (in words) [3]: specifically inhibit the interaction IgA-FcR
inhibition of IgG-FcR interaction (in words) [2]: produce, in a dose-dependent manner, the same interaction level as IgG
inhibition of rosettes formation (in words) (SRBC-IgG and U937 FcRs): capable of inhibiting rosettes formation
IC50 (inhibitor amount necessary to reduce at 50% the rosettes formation between SRBC-IgG and U937 FcRs) (SRBC-IgG and U937 FcRs): 78 µg/mL (≈ 36.4 µM)

(H2N-L-Arg(Pmc)-L-Thr(OtBu)-L-Tyr(OtBU)-CO)4-(Lys)2-Lys-Gly-OH [P-PAM]
inhibition of IgA-FcR interaction (in words) [3]: specifically inhibit the interaction IgA-FcR
inhibition of IgG-FcR interaction (in words) [2]: produce, in a dose-dependent manner, the same interaction level as IgG

Arg-Thr-Tyr [CON-L, reference compound]
inhibition of IgA-FcR interaction (in words) [3]: unable to produce the same effect
inhibition of IgG-FcR interaction (in words) [2]: unable to inhibit this interaction
inhibition of rosettes formation (in words) (SRBC-IgG and U937 FcRs): unable to inhibit this interaction
IC50 (inhibitor amount necessary to reduce at 50% the rosettes formation between SRBC-IgG and U937 FcRs) (SRBC-IgG and U937 FcRs): No Inhibition

bovine serum albumin [BSA, reference compound]
inhibition of IgA-FcR interaction (in words) [3]: unable to produce the same effect
inhibition of IgG-FcR interaction (in words) [2]: unable to inhibit this interaction
